# From patent publication US5053070A, “Pyrimidine derivatives, preparation processes thereof, herbicide containing the same, and herbicidal compositions containing the same along with other active ingredient” (Mitsui Toatsu Chemicals, Incorporated, priority 1988, dated 1991)
# Assays:
# peanut = experiment: Upland soil application test (Test 2), crop injury; assay type: in vivo; conditions: 30 g ai/a, soil spray before emergence, 30 days later
# In short: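 Soil-surface application of water-diluted wettable powder at 10 l per are, made one day after seeding and ahead of weed emergence. Plants stayed in the greenhouse for 30 days; injury was rated by air-dried weight versus untreated pots.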
# soybean = experiment: Upland soil application test (Test 2), crop injury; assay type: in vivo; conditions: 30 g ai/a, soil spray before emergence, 30 days later
# In short: (§1)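 Steps: fill pots with fertilized upland field soil containing uniformly mixed weed seed; sow crops and cover with 2-3 cm soil; after one day, spray the diluted wettable powder evenly over the soil at 10 l per are; assess at 30 days against untreated controls by dry weight.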
# cotton = experiment: Upland soil application test (Test 2), crop injury; assay type: in vivo; conditions: 30 g ai/a, soil spray before emergence, 30 days later
# In short: as §1
# johnsongrass [1] = experiment: Upland foliar application test by mixed formulations (Test 7); assay type: in vivo; conditions: Sorghum halepense, 720 h, applied alone, 30th day, read-out: Herbicidal effects (%) Johnsongrass Ea; for pest or weed control at 300 g/ha: 0.3 kg/ha; for pest or weed control at 1000 g/ha: 1 kg/ha
# In short: (§2)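 Foliar spray of two-compound mixed emulsion, diluted with water, at 5 l per are via ULV sprayer onto weeds at 2–3 leaf stage in upland soil pots, greenhouse. Effect observed 30 days after spraying. Measured mixture activity (Ea) compared with Colby expected value (Ec) derived from single-ingredient growth inhibition rates.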
# green foxtail [2] = experiment: as above; assay type: in vivo; conditions: applied alone, 30th day; for pest or weed control at 300 g/ha / pest or weed control at 1000 g/ha: Setaria viridis, 720 h, read-out: Herbicidal effects (%) Green foxtail Ea; for pest or weed control at 1000 g/ha: 1 kg/ha
# In short: as §2
# redroot pigweed [3] = experiment: as above; assay type: in vivo; conditions: Amaranthus retroflexus, 720 h, applied alone, 30th day, read-out: Herbicidal effects (%) Redrood pigweed Ea; for pest or weed control at 300 g/ha: 0.3 kg/ha; for pest or weed control at 1000 g/ha: 1 kg/ha
# In short: as §2
# barnyardgrass [4] = experiment: as above; assay type: in vivo; conditions: Echinochloa crus-galli, 720 h, applied alone, 30th day, read-out: Herbicidal effects (%) Barnyardgrass Ea; for pest or weed control at 300 g/ha: 0.3 kg/ha; for pest or weed control at 1000 g/ha: 1 kg/ha
# In short: as §2
# morningglories = experiment: as above; assay type: in vivo; conditions: Ipomoea, 720 h, applied alone, 30th day, read-out: Herbicidal effects (%) Morningglory Ea; for pest or weed control at 300 g/ha: 0.3 kg/ha; for pest or weed control at 1000 g/ha: 1 kg/ha
# In short: as §2
# [5] = test system: ALS (acetolactate syntase); experiment: ALS enzyme assay (Test 1); assay type: biochemical, pea; conditions: 1,000 ppm (0.5 mg/0.5 ml)
# In short: (§3)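 Partially purified ALS from dark-grown pea and barnyardgrass seedlings incubated 1 h at 30° C with pyruvate, TPP, MgCl2 and FAD. Compounds tested at 1,000 ppm (0.5 mg/0.5 ml). Acetoin formed detected colorimetrically at 525 nm via creatine/α-naphthol, relative to blank and acid-stopped controls.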
# [6] = test system: ALS (acetolactate syntase); experiment: ALS enzyme assay (Test 1); assay type: biochemical, barnyardgrass; conditions: 1,000 ppm (0.5 mg/0.5 ml)
# In short: as §3
# johnsongrass [7] = experiment: Upland soil application test (Test 2); assay type: in vivo; conditions: 30 g ai/a, soil spray before emergence, 30 days later
# In short: (§4)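 Damage was graded 30 days after treatment by comparing air-dried plant weight with that of plants in untreated pots. Test compound, given as a diluted wettable powder, had been sprayed on the soil surface one day after sowing, before any weeds emerged.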
# green foxtail [8] = experiment: Upland soil application test (Test 2); assay type: in vivo; conditions: 30 g ai/a, soil spray before emergence, 30 days later
# In short: as §4
# common lambsquarters = experiment: Upland soil application test (Test 2); assay type: in vivo; conditions: 30 g ai/a, soil spray before emergence, 30 days later
# In short: as §4
# redroot pigweed [9] = experiment: Upland soil application test (Test 2); assay type: in vivo; conditions: 30 g ai/a, soil spray before emergence, 30 days later
# In short: as §4
# barnyardgrass [10] = experiment: Upland soil application test (Test 2); assay type: in vivo; conditions: 30 g ai/a, soil spray before emergence, 30 days later
# In short: as §4
# foxtail meadow = experiment: Upland soil application test (Test 2); assay type: in vivo; conditions: 30 g ai/a, soil spray before emergence, 30 days later
# In short: as §4
# large crabgrass = experiment: Upland soil application test (Test 2); assay type: in vivo; conditions: 30 g ai/a, soil spray before emergence, 30 days later
# In short: as §4
SMILES,Injury Peanut (peanut),Injury Soybean (soybean),Injury Cotton (cotton),pest or weed control at 300 g/ha (johnsongrass [1]) [%],pest or weed control at 300 g/ha (green foxtail [2]; 0.3 kg/ha) [%],pest or weed control at 300 g/ha (redroot pigweed [3]) [%],pest or weed control at 300 g/ha (barnyardgrass [4]) [%],pest or weed control at 300 g/ha (morningglories) [%],Inhibitory activity (%) Pea [5] [%],Inhibitory activity (%) Barnyardgrass [6] [%],Herbicidal effects Johnsongrass (johnsongrass [7]),Herbicidal effects Green foxtail (green foxtail [8]),Herbicidal effects Common lambsquarters (common lambsquarters),Herbicidal effects Redroot pigweed (redroot pigweed [9]),Herbicidal effects Barnyardgrass (barnyardgrass [10]),Herbicidal effects Foxtail meadow (foxtail meadow),Herbicidal effects Large crabgrass (large crabgrass),pest or weed control at 1000 g/ha (johnsongrass [1]) [%],pest or weed control at 1000 g/ha (green foxtail [2]) [%],pest or weed control at 1000 g/ha (redroot pigweed [3]) [%],further results
COc1cc(OC)nc(Oc2ccccc2C=NOCC=Cc2ccc(Cl)cc2)n1 [Compound No. 28],0 (91-100 (No damages)),0 (91-100 (No damages)),0 (91-100 (No damages)),30,30,50,50,0,8,91,5 (0-5 (Death)),5 (0-5 (Death)),4 (6-10 (Severe damages)),4 (6-10 (Severe damages)),4 (6-10 (Severe damages)),5 (0-5 (Death)),4 (6-10 (Severe damages)),,,,
"COc1cc(OC)nc(Oc2ccccc2C=NOCC=Cc2cccc(C)c2)n1 [Compound No. 34, 0-(3-methylcinnamyl)-2-(4,6-dimethoxy-2-pyrimidinyloxy)benzaldoxime]",0 (91-100 (No damages)),0 (91-100 (No damages)),0 (91-100 (No damages)),30,30,30,30,0,0,91,5 (0-5 (Death)),5 (0-5 (Death)),4 (6-10 (Severe damages)),4 (6-10 (Severe damages)),5 (0-5 (Death)),5 (0-5 (Death)),4 (6-10 (Severe damages)),,,,
COc1cc(OC)nc(Oc2ccccc2C=NOCC=Cc2ccccc2C)n1 [Compound No. 39],0 (91-100 (No damages)),0 (91-100 (No damages)),0 (91-100 (No damages)),50,50,50,50,10,0,92,5 (0-5 (Death)),5 (0-5 (Death)),4 (6-10 (Severe damages)),5 (0-5 (Death)),4 (6-10 (Severe damages)),5 (0-5 (Death)),5 (0-5 (Death)),,,,
COc1cc(OC)nc(Oc2ccccc2C=NOC(C)C)n1 [compound 6],0 (91-100 (No damages)),0 (91-100 (No damages)),0 (91-100 (No damages)),,,,,,0,17,5 (0-5 (Death)),5 (0-5 (Death)),4 (6-10 (Severe damages)),3 (11-40 (Medium damages)),4 (6-10 (Severe damages)),5 (0-5 (Death)),4 (6-10 (Severe damages)),30,30,50,pest or weed control at 1000 g/ha (barnyardgrass [4]): 50%; pest or weed control at 1000 g/ha (morningglories): 0%
CC#CCON=Cc1ccccc1Oc1nc(OC)cc(OC)n1 [compound 10],0 (91-100 (No damages)),0 (91-100 (No damages)),0 (91-100 (No damages)),,,,,,0,55,4 (6-10 (Severe damages)),4 (6-10 (Severe damages)),3 (11-40 (Medium damages)),3 (11-40 (Medium damages)),3 (11-40 (Medium damages)),4 (6-10 (Severe damages)),3 (11-40 (Medium damages)),20,20,10,pest or weed control at 1000 g/ha (barnyardgrass [4]): 10%; pest or weed control at 1000 g/ha (morningglories): 0%
COc1cc(OC)nc(Oc2ccccc2C=NOCC=Cc2ccc(Cl)cc2Cl)n1 [compound 30],0 (91-100 (No damages)),0 (91-100 (No damages)),0 (91-100 (No damages)),10,20,40,40,0,6,97,5 (0-5 (Death)),5 (0-5 (Death)),4 (6-10 (Severe damages)),5 (0-5 (Death)),5 (0-5 (Death)),5 (0-5 (Death)),5 (0-5 (Death)),,,,Herbicidal effects (%) Green foxtail Ea (green foxtail [2]; 0.3 kg/ha): 20%
COc1cc(OC)nc(Oc2ccccc2C=NOCC=Cc2ccccc2C(F)(F)F)n1 [compound 32],0 (91-100 (No damages)),0 (91-100 (No damages)),0 (91-100 (No damages)),,,,,,0,91,5 (0-5 (Death)),5 (0-5 (Death)),4 (6-10 (Severe damages)),5 (0-5 (Death)),5 (0-5 (Death)),5 (0-5 (Death)),5 (0-5 (Death)),30,30,50,pest or weed control at 1000 g/ha (barnyardgrass [4]): 50%; pest or weed control at 1000 g/ha (morningglories): 0%
COc1cccc(C=CCON=Cc2ccccc2Oc2nc(OC)cc(OC)n2)c1 [compound 38],0 (91-100 (No damages)),0 (91-100 (No damages)),0 (91-100 (No damages)),40,40,50,50,10,0,91,5 (0-5 (Death)),5 (0-5 (Death)),4 (6-10 (Severe damages)),4 (6-10 (Severe damages)),5 (0-5 (Death)),4 (6-10 (Severe damages)),5 (0-5 (Death)),,,,
